US8962600B2, “Neuroprotective compounds and their use” (The Medical College of Wisconsin, Inc., priority 2009, dated 2015)

Key:
IL-12 = experiment: LPS-induced IL-12 release in primary microglia, LUMINEX immunoassay; type: cell-based, mouse; settings: diapocynin 10 μM, LPS 24 hr
Description: (§1) Primary microglia were obtained from 1-2 day old C57/b16 mouse pups. Upon collection, whole brains were kept in ice-cold DMEM-F12 medium containing 10% FBS, 1× sodium pyruvate, 1× NEAAs, 100 units pen/strep, and Q. After collection, the brains were placed in 0.25% trypsin-EDTA and incubated at 37° C., with gentle shaking every 5-10 min. After 30 min, the trypsin was removed, and the brains are washed in warmed medium twice. After washing, medium was added to the brains, and the brains were homogenized using gentle pipetting, starting with a 25 ml pipette and moving to smaller pipette tips as the brains were broken up. When the brains were sufficiently homogenized to a single-cell suspension, they were filtered with a 70 μm nylon filter, which allowed microglia and astrocytes to be collected. The resultant cell suspension was plated in T-75 flasks and allowed to grow for 12-14 days at 37° C., 5% CO2. […]
(§2) Cytokine levels of BV2 and microglial cells treated with diapocynin were determined by LUMINEX® multiplex immunoassay. […]
(§3) Cytokine standards and controls were adjusted to 40 μl volume and the LUMINEX® Samples were run on a LUMINEX® 200 Total System and analyzed with Multiplex Analysis—LUMINEX® Software (Invitrogen, Carlsbad, Calif.).

[1] = tested on: tyrosine hydroxylase (TH); experiment: Tyrosine hydroxylase expression in striatum and substantia nigra, Western blot and DAB immunostaining; type: in vivo, C57BL/6 mice
Description: (§4) Six- to 8-week-old C57BL/6 mice weighing 24 to 28 g were housed in standard conditions of constant temperature (22±1° C.), humidity (relative, 30%), and a 12-h light/dark cycle. Mice were allowed free access to food and water. Use of the animals and protocol procedures were approved and supervised by the Committee on Animal Care at Iowa State University (Ames, Iowa). For neurodegeneration studies, mice either received diapocynin (300 mg/kg dose) by oral gavage for 1 day (pre-treatment before MPTP administration), 5 days (co-treatment with MPTP), or 7 days (post-treatment after MPTP).
DAB immunostaining was performed in striatal and substantia nigra sections as described previously (57). In brief, 1 day or 7 days after final dosing of MPTP, mice were sacrificed and perfused with 4% PFA and post-fixed with PFA and 30% sucrose, respectively. Next, fixed brains were cut into 30 μm sections and kept in 30% sucrose-ethylene glycol solutions at −20° C. On the day of staining, sections were rinsed with PBS and incubated with either anti-TH (rabbit anti-mouse, 1:1800; Calbiochem, Gibstown, N.J.), anti-IBA-1 (goat anti-mouse, 1:1000; Dako), anti-GFAP (mouse anti-mouse, 1:1000; Millipore, Billerica, Mass.), or anti-gp91phox (mouse anti-mouse, 1:500; Santa Cruz Biotechnology) overnight at 4° C. […]

IL-10 = experiment: LPS-induced IL-10 release in primary microglia, LUMINEX immunoassay; type: cell-based, mouse; settings: diapocynin 10 μM, LPS 24 hr
Description: as §1, §2, §3

MPTP-intoxicated mice = experiment: Rotarod in MPTP-injected mice; type: in vivo, C57BL/6 mice; settings: 20 rpm; MPTP- and diapocynin-treated mice; 300 mg/kg oral gavage; 5 days after last MPTP injection
Description: as §4
Two types of behavioral tests were performed including an Open Field experiment for testing locomotor activities and a Rotarod experiment to test coordination of movement of mice after MPTP and diapocynin treatment (48, 56). An Open Field activity monitor (model RXYZCM-16; AccuScan, Columbus, Ohio) was used to measure the spontaneous activity of mice. The activity chamber was 40×40×30.5 cm, made of clear PLEXIGLAS® and covered with a PLEXIGLAS® lid with holes for ventilation. Infrared monitoring sensors were located every 2.54 cm along the perimeter (16 infrared beams along each side) and 2.5 cm above the floor. Two additional sets of 16 sensors were located 8.0 cm above the floor on opposite sides. Data were collected and analyzed by a VersaMax Analyzer (model CDA-8, AccuScan). […]

COc1cc(C(C)=O)cc(-c2cc(C(C)=O)cc(OC)c2O)c1O [diapocynin]
blocking LPS-induced release of IL-12 (IL-12): very effective
expression of TH in striatum and substantia nigra (Western blot) ([1]; MPTP- and diapocynin-treated mice, 300 mg/kg oral gavage): less reduction
loss of TH-positive neurons and terminals in striatum and substantia nigra (TH-DAB immunostaining) ([1]; MPTP-treated mice with diapocynin treatment 300 mg/kg oral gavage): substantially prevented
blocking LPS-induced release of IL-10 (IL-10): very effective
decrease in time spent on Rotarod compared to control mice (MPTP-intoxicated mice): < 25%
